Here are results for 52 compounds from ChEMBL document CHEMBL4804281, “STK4 inhibitors for treatment of hematologic malignancies” (2020).

SMILES strings stand for the structures. Active and inactive are the calls of the source. No cut-off for these calls is given here. Some results are limits rather than exact numbers.

The target of experiment [1] is T1, Serine/threonine-protein kinase 4 (Homo sapiens) (UniProt Q13043).
T1 sequence (whole entry): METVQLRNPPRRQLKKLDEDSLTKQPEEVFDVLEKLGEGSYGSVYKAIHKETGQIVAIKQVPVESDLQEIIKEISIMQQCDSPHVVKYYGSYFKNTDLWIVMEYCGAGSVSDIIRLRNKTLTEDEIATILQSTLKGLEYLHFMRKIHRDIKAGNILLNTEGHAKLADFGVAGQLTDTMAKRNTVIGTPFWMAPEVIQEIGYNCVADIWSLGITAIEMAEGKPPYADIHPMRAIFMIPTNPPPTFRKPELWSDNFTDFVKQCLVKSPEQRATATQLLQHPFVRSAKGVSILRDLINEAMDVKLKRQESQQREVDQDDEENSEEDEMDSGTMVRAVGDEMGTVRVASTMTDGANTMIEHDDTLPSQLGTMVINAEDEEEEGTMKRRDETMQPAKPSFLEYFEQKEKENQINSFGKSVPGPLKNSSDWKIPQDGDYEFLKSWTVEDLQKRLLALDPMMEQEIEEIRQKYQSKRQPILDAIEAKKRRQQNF
Briefly: Inhibition of STK4 (unknown origin) using fluorescein-labelled Ser/Thr-07 peptide as substrate incubated for 1 hr in presence of ATP at Km concentration by Z-LYTE assay.

The target of experiment [2] is Serine/threonine-protein kinase 24 (Homo sapiens) (UniProt Q9Y6E0). Briefly: Inhibition of STK24 (unknown origin) using fluorescein-labelled Ser/Thr-07 peptide as substrate incubated for 1 hr in presence of ATP at Km concentration by Z-LYTE assay.
Serine/threonine-protein kinase 24 (Homo sapiens), sequence (Q9Y6E0 whole entry, looked up): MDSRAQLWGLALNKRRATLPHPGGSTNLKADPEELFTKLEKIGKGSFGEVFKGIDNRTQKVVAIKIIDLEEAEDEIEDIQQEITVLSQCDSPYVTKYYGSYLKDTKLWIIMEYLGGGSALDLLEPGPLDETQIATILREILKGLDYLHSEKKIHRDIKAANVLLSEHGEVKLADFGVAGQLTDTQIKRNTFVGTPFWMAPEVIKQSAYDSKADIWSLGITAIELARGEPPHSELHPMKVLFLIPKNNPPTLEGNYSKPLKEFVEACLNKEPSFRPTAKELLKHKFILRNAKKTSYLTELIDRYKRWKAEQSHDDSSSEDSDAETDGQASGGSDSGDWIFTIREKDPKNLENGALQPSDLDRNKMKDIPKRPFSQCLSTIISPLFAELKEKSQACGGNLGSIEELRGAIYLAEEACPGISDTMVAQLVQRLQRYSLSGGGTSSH
Experiment [3] deals with T2, Serine/threonine-protein kinase 3 (Homo sapiens) (UniProt Q13188).
T2 sequence (whole entry): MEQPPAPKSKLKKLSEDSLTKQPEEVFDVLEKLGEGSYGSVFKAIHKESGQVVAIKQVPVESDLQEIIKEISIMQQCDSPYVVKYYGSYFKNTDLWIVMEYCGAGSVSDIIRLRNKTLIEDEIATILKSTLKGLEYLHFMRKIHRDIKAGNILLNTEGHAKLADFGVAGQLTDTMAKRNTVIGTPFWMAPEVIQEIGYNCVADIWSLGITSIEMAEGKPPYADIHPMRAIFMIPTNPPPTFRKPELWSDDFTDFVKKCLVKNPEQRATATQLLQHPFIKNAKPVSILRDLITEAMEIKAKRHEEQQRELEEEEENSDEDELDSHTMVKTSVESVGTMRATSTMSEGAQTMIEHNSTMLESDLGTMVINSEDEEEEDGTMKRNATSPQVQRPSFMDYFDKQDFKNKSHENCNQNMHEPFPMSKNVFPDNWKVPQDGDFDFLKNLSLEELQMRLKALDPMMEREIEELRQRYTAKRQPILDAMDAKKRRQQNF
Briefly: Inhibition of STK3 (unknown origin) using fluorescein-labelled Ser/Thr-07 peptide as substrate incubated for 1 hr in presence of ATP at Km concentration by Z-LYTE assay.

Experiment [4] concerns MM1.S. Briefly: Upregulation of YAP1 protein level in human MM1.S cells at 1 uM measured after 16 hrs by Western blot analysis. Type of experiment: functional, cell-based.
Experiment [5] relates to MM1.S. Kind of experiment: Downregulation of phosphorylated-MOB1 protein level in human MM1.S cells at 1 to 10 uM measured after 6 hrs by Western blot analysis. Type of experiment: functional, cell-based. The following applies: dose 1-10 µM. A general note: In western blotting, separated proteins are transferred to a membrane and probed.
Experiment [6] concerns MM1.S. Briefly: Upregulation of YAP1 protein level in human MM1.S cells at 3 to 10 uM measured after 72 hrs by Western blot analysis. Type of experiment: functional, cell-based. The following applies: dose 3-10 µM.
The test system of the next experiment is NCI-H929. Briefly: Upregulation of YAP1 protein level in human NCI-H929 cells at 3 to 10 uM measured after 72 hrs by Western blot analysis. Type of experiment: functional, cell-based. The following applies: dose 3-10 µM.

Broadly, the IC50 is the concentration that gives 50% inhibition. Take `C#Cc1ccc(-c2cnc(N)c(-c3ccc4c(c3)CCNC4=O)c2)c(OC)c1`: the concentration for half-maximal inhibition (IC50) in experiment [1] was less than 40 nM.

Regarding `Cn1cnc2c(-c3cnc(N)c(-c4ccc5c(c4)CCNC5=O)c3)cccc21`, the 50% inhibitory concentration (IC50) in experiment [1] was determined as 40 nM.

With `Nc1ncc(-c2cccc(NS(=O)(=O)C3CC3)c2)cc1-c1ccc2c(c1)CCNC2=O`, in experiment [1], the IC50 is less than 40 nM.

Consider `COc1cc(S(=O)(=O)N(C)C2CC2)ccc1-c1cnc(N)c(-c2ccc3c(c2)CCNC3=O)c1`, for which the concentration for half-maximal inhibition (IC50) in experiment [1] is less than 40 nM; in experiment [2], 40 nM; in experiment [3], less than 40 nM.

`CCNC(=O)c1ccc(F)c(-c2cnc(N)c(-c3ccc4c(c3)CCNC4=O)c2)c1`: the IC50 in experiment [1] is more than 900 nM.

For `N#Cc1cccc(-c2cnc(N)c(-c3ccc4c(c3)CCNC4=O)c2)c1`, the concentration for half-maximal inhibition (IC50) in experiment [1] stood at 40 nM; in experiment [2], 200 nM; in experiment [3] it was 40 nM.

As to `NC(=O)c1ccc(-c2cc(-c3cc([N+](=O)[O-])ccc3F)cnc2N)cc1`, the half-inhibitory concentration (IC50) in experiment [1] worked out at 200 nM.

In the case of `CN(C1CC1)S(=O)(=O)c1ccc(-c2cnc(N)c(-c3ccc4c(c3)CCNC4=O)c2)cc1`, the concentration for half-maximal inhibition (IC50) in experiment [1] was less than 40 nM. Moreover, the result with MM1.S [4] was Active.

Turning to `Nc1ncc(-c2cc([N+](=O)[O-])cnc2F)cc1-c1ccc2c(c1)CCNC2=O`, in experiment [1], the 50% inhibitory concentration (IC50) worked out at 200 nM.

As for `COc1cc(S(=O)(=O)NC2CC2)ccc1-c1cnc(N)c(-c2ccc3c(c2)CCNC3=O)c1`, the IC50 in experiment [1] is less than 40 nM.

Take `Nc1ncc(-c2cc([N+](=O)[O-])c(NCc3ccccc3)cc2F)cc1-c1ccc2c(c1)CCNC2=O`: the result with MM1.S [5] was Active. In experiment [1], the concentration for half-maximal inhibition (IC50) was found to be 40 nM.

On to `Cc1cc(N2CCOCC2)cc2[nH]c(-c3c(NC[C@@H](O)c4cccc(Cl)c4)cc[nH]c3=O)nc12`, for which the IC50 in experiment [1] came out at 40 nM. For the same compound, the outcome in the experiment with MM1.S [4] was inactive.

Consider `Nc1ncc(-c2cc3scnc3cc2F)cc1-c1ccc2c(c1)CCNC2=O`, for which the IC50 in experiment [1] amounted to 40 nM.

For the compound `Nc1ncc(-c2cc(-c3cccc4ncsc34)ccc2F)cc1-c1ccc2c(=O)[nH]cnc2c1`, in experiment [1], the IC50 was found to be 40 nM.

For `CCOc1cc(S(=O)(=O)N(C)C2CC2)ccc1-c1cnc(N)c(-c2ccc3c(c2)CCNC3=O)c1`, in experiment [1], the IC50 was less than 40 nM.

Turning to `Nc1ncc(-c2ccc(F)c3ncsc23)cc1-c1ccc2c(c1)CNC2=O`, the half-inhibitory concentration (IC50) in experiment [1] amounted to 40 nM.

For the compound `CN1CCc2cc(-c3cc(-c4ccc(S(=O)(=O)N(C)C5CC5)cc4F)cnc3N)ccc2C1=O`, the IC50 in experiment [1] is less than 40 nM.

In the case of `Nc1ncc(-c2cccc(S(N)(=O)=O)c2)cc1-c1ccc2c(c1)CCNC2=O`, the half-maximal inhibitory concentration (IC50) in experiment [1] was found to be 200 nM.

Consider `CN(C1CC1)S(=O)(=O)c1ccc(-c2cnc(N)c(-c3ccc4c(=O)[nH]cnc4c3)c2)c(F)c1`, for which, in experiment [1], the concentration for half-maximal inhibition (IC50) is less than 40 nM.

As for `Cc1cc(S(=O)(=O)N(C)C2CC2)ccc1-c1cnc(N)c(-c2ccc3c(c2)CCNC3=O)c1`, the IC50 in experiment [1] is less than 40 nM.

As for `CC(C)Oc1cc(S(=O)(=O)N(C)C2CC2)ccc1-c1cnc(N)c(-c2ccc3c(c2)CNC3=O)c1`, in experiment [1], the IC50 was less than 40 nM.

`NC(=O)c1ccc(-c2cc(-c3cc([N+](=O)[O-])ccc3F)cnc2N)cc1Cl`: the concentration for half-maximal inhibition (IC50) in experiment [1] was 200 nM.

For `Nc1ncc(-c2ccc(F)c3ncsc23)cc1-c1ccc2c(c1)CCNC2=O`, the 50% inhibitory concentration (IC50) in experiment [1] is less than 40 nM.

Turning to `Nc1ncc(-c2cc([N+](=O)[O-])cc(F)c2F)cc1-c1ccc2c(c1)CCNC2=O`, in experiment [1], the IC50 worked out at 40 nM.

Turning to `N#Cc1cc(-c2cc(-c3cc([N+](=O)[O-])ccc3F)cnc2N)ccc1O`, the half-inhibitory concentration (IC50) in experiment [1] stood at 200 nM.

As to `Nc1ncc(-c2cccc(S(=O)(=O)NC3CC3)c2)cc1-c1ccc2c(c1)CCNC2=O`, the outcome in the experiment with MM1.S [6] and with NCI-H929 was Active. For the same compound, the 50% inhibitory concentration (IC50) in experiment [1] was determined as 40 nM; in experiment [2], 200 nM; in experiment [3], 40 nM.

Consider `Nc1ncc(-c2ccccc2F)cc1-c1ccc2c(c1)CCNC2=O`, for which the IC50 in experiment [1] was found to be 40 nM.

For the compound `Nc1ncc(-c2cccc3scnc23)cc1-c1ccc2c(c1)CCNC2=O`, the concentration for half-maximal inhibition (IC50) in experiment [1] amounted to 40 nM.

For `C#Cc1cc(F)c(-c2cnc(N)c(-c3ccc4c(c3)CCNC4=O)c2)cc1[N+](=O)[O-]`, in experiment [1], the half-maximal inhibitory concentration (IC50) is 40 nM.

With `CC(C)Oc1cc(NS(=O)(=O)C2CC2)ccc1-c1cnc(N)c(-c2ccc3c(c2)CCNC3=O)c1`, the IC50 in experiment [1] is less than 40 nM.

As for `Nc1ncc(-c2cc([N+](=O)[O-])c(Cl)cc2F)cc1-c1ccc2c(c1)CCNC2=O`, in the experiment on MM1.S [5], the outcome was Active. The IC50 in experiment [1] and in experiment [3] was 40 nM each time.

In the case of `CN(C1CC1)S(=O)(=O)c1ccc(-c2cnc(N)c(-c3ccc4c(c3)CNC4=O)c2)c(F)c1`, the values for the IC50 in experiment [1], in experiment [2] and in experiment [3] were less than 40 nM, more than 900 nM and less than 40 nM, respectively.

Take `Nc1ncc(-c2cncc3ncsc23)cc1-c1ccc2c(c1)CCNC2=O`: the IC50 in experiment [1] came to 200 nM.

For `Nc1ncc(-c2cccc(-c3nccs3)c2)cc1-c1ccc2c(c1)CCNC2=O`, in experiment [1], the IC50 was less than 40 nM.

In the case of `Nc1ncc(-c2cccc3sccc23)cc1-c1ccc2c(c1)CCNC2=O`, the IC50 in experiment [1] was less than 40 nM.

Turning to `Nc1ncc(-c2ccc(NS(=O)(=O)C3CC3)cc2OC2CCCC2)cc1-c1ccc2c(c1)CCNC2=O`, the half-inhibitory concentration (IC50) in experiment [1] is less than 40 nM.

With `Nc1ncc(-c2scnc2Cl)cc1-c1ccc2c(c1)CCNC2=O`, the results for the IC50 in experiment [1], in experiment [2] and in experiment [3] were 40 nM, more than 900 nM and 40 nM, respectively.

Regarding `COc1cc(S(=O)(=O)N(C)C2CCCCC2)ccc1-c1cnc(N)c(-c2ccc3c(c2)CCNC3=O)c1`, the IC50 in experiment [1] is 40 nM.

Turning to `Nc1ncc(-c2ccc(NS(=O)(=O)C3CC3)cc2OCc2ccccc2)cc1-c1ccc2c(c1)CCNC2=O`, in experiment [1], the IC50 was determined as 40 nM.

On to `Nc1ncc(-c2ccc([N+](=O)[O-])cc2F)cc1-c1ccc2c(c1)CCNC2=O`, for which the IC50 in experiment [1] was 40 nM.

For the compound `COc1cc(-c2nccs2)ccc1-c1cnc(N)c(-c2ccc3c(c2)CCNC3=O)c1`, the IC50 in experiment [1] amounted to 40 nM.

As for `Nc1ncc(-c2ccc3ncsc3c2)cc1-c1ccc2c(c1)CCNC2=O`, the 50% inhibitory concentration (IC50) in experiment [1] amounted to 40 nM.

As for `Nc1ncc(-c2cc(F)cc([N+](=O)[O-])c2)cc1-c1ccc2c(c1)CCNC2=O`, the IC50 in experiment [1] stood at 40 nM.

`Nc1ncc(-c2cnccc2F)cc1-c1ccc2c(c1)CCNC2=O`: the IC50 in experiment [1] came to 200 nM.

As for `Nc1ncc(-c2cc([N+](=O)[O-])ccc2Cl)cc1-c1ccc2c(c1)CCNC2=O`, the IC50 in experiment [1] is more than 900 nM.

With `Nc1ncc(-c2cc(F)ccc2[N+](=O)[O-])cc1-c1ccc2c(c1)CCNC2=O`, the IC50 in experiment [1] was more than 900 nM.

Regarding `Nc1ncc(-c2cccc([N+](=O)[O-])c2)cc1-c1ccc2c(c1)CCNC2=O`, the IC50 in experiment [1] was less than 40 nM.

In the case of `COc1ccncc1-c1cnc(N)c(-c2ccc3c(c2)CCNC3=O)c1`, the IC50 in experiment [1] was more than 900 nM.

With `CC(C)Oc1cc(S(=O)(=O)N(C)C2CC2)ccc1-c1cnc(N)c(-c2ccc3c(c2)CCNC3=O)c1`, in experiment [1], the 50% inhibitory concentration (IC50) is less than 40 nM.

Consider `Nc1ncc(-c2cc3c(cc2F)OCC(=O)N3)cc1-c1ccc2c(c1)CCNC2=O`, for which the outcome in the experiment on MM1.S [5] was Active. Moreover, the IC50 in experiment [1] is less than 40 nM; in experiment [3], 40 nM.

For `CN1CCc2cc(-c3cc(-c4cccc5ncsc45)cnc3N)ccc2C1=O`, in experiment [1], the IC50 was 40 nM.

Regarding `COc1cc(S(=O)(=O)N(C)C2CCOCC2)ccc1-c1cnc(N)c(-c2ccc3c(c2)CCNC3=O)c1`, the half-inhibitory concentration (IC50) in experiment [1] was 40 nM.
